{"source": "patent US8178091B2", "about": "“Compositions and methods for the treatment of respiratory disorders” (University of Washington, priority 2007, dated 2012)", "key": {"IGF-1R": {"test_system": "IGF-1R", "settings": "murine and human tissues; cited from earlier work"}, "[1]": {"test_system": "primary mouse lung fibroblasts", "assay": "apoptosis assay (Cell Death Detection ELISA-plus), mouse lung fibroblasts", "format": "cell-based, C57BL6 mice", "settings": "serum-starved, 24 hours", "description": "A. Quantification of TUNEL IHC by number of TUNEL positive cells/total # of cells. Average ±SD of two mice/condition and at least 500 cells analyzed per condition. […] Mouse lung fibroblasts were serum starved overnight and then incubated with indicated concentration of IGF-1R antibody, A12. Apoptosis was measured by Cell Death ELISA-plus (Roche Applied Science). All experiments were done in triplicate and repeated at least twice. Apoptosis index is defined as ratio of experimental condition OD405nm/control (media alone) OD405nm. The data was analyzed using one-way ANOVA with Tukey's HSD post hoc test, and statistical significance (*) was determined at p<0.05.\nFor apoptosis assays, primary mouse lung fibroblasts were plated in 96-well plates (20,000 cells/well) overnight and serum-starved for 24 hours. Functional blocking antibody to the type 1 IGF receptor (A12) was added to media at indicated concentration for 24 hours. At the end of the experiment, plates were centrifuged at 200×g for 10 minutes to prevent detached cells from being aspirated, and apoptosis was measured using the Cell Death Detection ELISA-plus System (Roche Applied Science, Penzberg, Germany), which detects cytosolic histone-complexed DNA fragments. All experiments were done in triplicate and repeated at least twice. Apoptosis index was defined as ratio of experimental condition OD405nm/control (media alone) OD405nm."}, "[2]": {"test_system": "lung cells (TUNEL positive)", "assay": "TUNEL assay on lung sections after bleomycin", "format": "in vivo, mice", "description": "For TUNEL assay, tissue sections were deparaffinized using standard protocols and permeabilised with proteinase K (10 μg/ml in 10 mM Tris-HCl) for 30 mins at 37° C. Non-specific binding sites were blocked with 1 mg/ml BSA in 50 mM Tris-HCl for 10 mins at 37° C. TUNEL positive cells were detected with Fluorescein In Situ Cell Death Detection Kit (Roche). Nuclei were counterstained with DAPI. To quantitate apoptosis, at least 2 mice per timepoint were examined and a blinded observer counted number of TUNEL positive cells and DAPI positive cells in 4 independent fields/mouse. At least 500 cells were analyzed per condition."}, "[3]": {"test_system": "primary normal human lung fibroblasts", "assay": "apoptosis assay (Cell Death Detection ELISA-plus), lung fibroblasts", "format": "cell-based", "settings": "serum starvation, increasing concentrations; listed as IGF-1R antibody", "description": "A: Normal human lung fibroblast or distal lung epithelial cells were serum-starved overnight and then incubated with indicated concentration of IGF-1R antibody or IGFBP-3 overnight. B: A549 cells were serum-starved and incubated with IGF-1R antibody (136 μg/ml) with or without the indicated concentration of Fas ligand. Apoptosis was measured by Cell Death ELISA-plus ELISA (Roche Applied Science) per the manufacturer's directions. All experiments were done in triplicate and repeated at least twice. Apoptosis index is defined as the ratio of experimental condition OD405 nm: control (media alone) OD405 nm.\nPrimary normal human lung fibroblasts (Clonetics, Cambrex Bioscience, Rockland, Me.), primary distal lung human epithelial cells (Clonetics) or A549 (American Type Culture Collection, Manassas, Va.) were seeded in a 96-well tissue culture plate (2×10^4 cells/well) overnight and serum-starved for 24 hours. […] After 48 hours, apoptosis was measured. To prevent detached cells from being aspirated, plates were centrifuged at 200×g for 10 minutes, and apoptosis was measured using the Cell Death Detection ELISA-plus System (Roche Applied Science, Penzberg, Germany), which detects cytosolic histone-complexed DNA fragments. […]"}}, "note": "Entries after “also recorded” stand apart in the source; their conditions may differ."}
{"substance": "A12: Function blocking antibody to the human type 1 IGF receptor, gift from ImClone Systems", "values": [{"measurement": "IGF-1R signaling", "setting": "IGF-1R", "value": "inhibits IGF-1R signaling"}, {"measurement": "apoptosis of primary mouse lung fibroblasts", "setting": "[1]", "value": "dose-dependent increase in apoptosis; also recorded: Increased apoptosis"}, {"measurement": "apoptosis of primary mouse lung fibroblasts", "setting": "[1]; listed as IGF-1R antibody", "value": "increased apoptosis"}, {"measurement": "TUNEL-positive (apoptotic) cells in lung", "setting": "[2]; d14, vs vehicle", "value": "increase in TUNEL-positive cells"}, {"measurement": "TUNEL-positive (apoptotic) cells in lung", "setting": "[2]; day 28, vs vehicle", "value": "fewer apoptotic cells"}, {"measurement": "apoptosis of primary human lung fibroblasts", "setting": "[3]", "value": "dose-dependent increase in apoptosis; also recorded: increased apoptosis"}]}
